Test results as given in US20090221532A1 (priority 2005, published 2009).

Tests used:
[1] = Population pharmacokinetic model (linear 5-compartment, NONMEM) of venous plasma concentrations; set-up: species or system human; conditions: population PK model; lean body weight covariate
[2] = Pharmacokinetic/pharmacodynamic models (probabilistic and continuous) for level of sedation (MOAA/S score); set-up: species or system human; conditions: subjects older than 65
[3] = Stella reports, cited from earlier work
patients = conditions: anesthetic induction doses; Bryson et al.; cited from earlier work

CC(C)c1cccc(C(C)C)c1OCOP(=O)([O-])[O-].[Na+].[Na+] [propofol prodrug, O-phosphonooxymethyl propofol disodium salt]
Increase of central volume of propofol generated from the prodrug [1]: 2.5 % per kg of LBW over 55 kg | Increase of central volume of the prodrug [1]: 1.8 % per kg of LBW over 55 kg | Increase of clearance of the prodrug [1]: 1.4 % per kg of LBW over 55 kg | Lowering of effect site concentration at which a given MOAA/S score is attained, versus younger subjects ([2]; continuous model): about 25% | Lowering of effect site concentration at which a given MOAA/S score is attained, versus younger subjects ([2]; probabilistic model): about 33% | Stability at pH levels suitable for making pharmaceutical formulations [3]: good stability | Breakdown in vivo under physiological conditions ([3]; administered intravenously): quickly breaks down in vivo

CC(C)c1cccc(C(C)C)c1O [propofol]
Patients with respiratory consequences, including a reduction in tidal volume and apnea (patients): up to 83%
